Measured values reported in patent publication US20240041899A1, “SOLID PREPARATION” (ASKA Pharmaceutical Co., Ltd., priority 2020, published 2024).

Tests used:
[1] = system: rats having the urination disorder associated with diabetes; assay: Test Example 4: urination disorder model associated with streptozocin-induced diabetes (tissue weights, blood glucose, cystometry, nomogram); assay type: in vivo; conditions: for Bladder weight / Blood glucose level / Kidney weight / Prostate weight, dorsolateral prostate / Prostate weight, ventral prostate / Prostate weight, whole / Seminal vesicle weight: 4 weeks; for Bladder weight / Blood glucose level / Kidney weight / Prostate weight, dorsolateral prostate / Prostate weight, ventral prostate / Prostate weight, whole / Seminal vesicle weight / Body weight: average ± SD; for Dorsolateral prostate atrophy rate / Seminal vesicle atrophy rate / Ventral prostate atrophy rate / Whole prostate atrophy rate: relative to solvent group; for Body weight: model with induced diabetes (STZ), male rats
Method: As described below, as a urination disorder model, a urination disorder model associated with diabetes was prepared to evaluate the urination disorder. This model has no benign prostatic hyperplasia and is a model of a urination disorder associated with neuropathy and smooth muscle contraction disorder.
The body weights of rats (male, Crl:CD(SD), 5-week-old; Charles River Laboratories Japan, Inc.) were measured. After the rats were fasted overnight, the blood was collected from the caudal vein to measure the fasting blood glucose. On the basis of the body weight and the fasting blood glucose level, the rats were grouped or divided into two (2) groups by randomized, multivariable block allocation. The day after the rats were grouped, a first group received intraperitoneal administration of a citrate buffer (pH 4.5) (10 mL/kg) having a concentration of 0.1 mmol/L, and a second group received intraperitoneal administration of streptozocin (STZ; Sigma-Aldrich) (50 mg/kg). Streptozocin (STZ) was administered in the form of a solution of streptozocin having a concentration of 5 mg/mL in the citrate buffer.
About one (1) week after streptozocin (STZ) was administered, the body weight and the fasting blood glucose were measured. In the streptozocin (STZ) administration group (the second group), individuals having a fasting blood glucose level of not less than 300 mg/dL were used as animals with induced diabetes. These animals with induced diabetes are a model having no abnormality of the prostate (having no benign prostatic hyperplasia). On the basis of the body weight and the fasting blood glucose level, the animals (models) with induced diabetes were grouped or divided into three (3) groups by randomized, multivariable block allocation.
To the three model groups with induced diabetes, a 0.5 v/v % Polysorbate 80 solution (0.5% P) (10 mL/kg), the compound A (3 mg/kg), and the compound A (10 mg/kg) were orally administered, respectively, wherein the administration schedule in all groups was a frequency of once a day, only on weekdays, over four (4) weeks. Moreover, to the above-mentioned first group, a 0.5 v/v % Polysorbate 80 solution (0.5% P) (10 mL/kg) was orally administered in the same administration schedule (normal group). On the last day of administration, a cannula was inserted into and secured to the dome of the bladder under isoflurane anesthesia, and cystometry (Cystometogram, CMG) was conducted in the order of under awake condition and under urethane anesthesia to measure the intravesical pressure, the voided volume, and the residual urine volume. After the completion of the measurement, the blood was collected under deep isoflurane anesthesia, and then the prostate (ventral prostate, dorsolateral prostate), the seminal vesicle, the bladder, and the kidney were extracted and were each weighed. Moreover, the blood glucose level in the collected blood was measured.
The test substances and the dosage in the test system (rats having the urination disorder associated with diabetes) are as follows. • Normal group: citrate buffer 10 mL/kg (intraperitoneal administration), 0.5% P 10 mL/kg (oral administration) (n=10) • Solvent group (control group): STZ 50 mg/kg (intraperitoneal administration), 0.5% P 10 mL/kg (oral administration) (n=10) • Group A3: STZ 50 mg/kg (intraperitoneal administration), Compound A 3 mg/kg (oral administration) (n=10) • Group A10: STZ 50 mg/kg (intraperitoneal administration), Compound A 10 mg/kg (oral administration) (n=9)
The resulting data of the intravesical pressure, the voided volume, and the residual urine volume were analyzed, and the bladder capacity (mL), the residual urine volume […], and the urination efficiency (%) were determined as urination parameters in each urination. With respect to these urination parameters, the average value of two measurements was calculated and was taken as a measured value of each individual. […]

[2] = system: ovariectomized rats; assay: Test Example 5: antiprogesterone activity, uterine weight associated with rat deciduoma formation; assay type: in vivo
Method: For the compound A and the compound D (mifepristone), the antiprogesterone activity was measured. Specifically, a sex hormone and a test substance were repeatedly administered to ovariectomized rats as a test system to examine the antiprogesterone action (antiprogesterone activity) based on, as an index, the fluctuation of the uterine weight (the inhibitory action relative to the increase of the weight) associated with rat deciduoma formation.
More specifically, rats (female, Crl:CD(SD), 5-week-old: Charles River Laboratories Japan, Inc.) were subjected to ovariectomy, and from one (1) week after the ovariectomy, a high dose estrone of 5 μg/one animal was hypodermically administered to the rats once a day for three (3) days. From the day after one day rest period, the rats received, once a day over eight (8) days, hypodermic administration of a low dose estrone (1 μg/one animal), intramuscular administration of progesterone (6 mg/kg), and oral administration of a test substance. In the middle of the administration, on Day 4 of the start of administration, the rats were subjected to a stimulation treatment of decidualization reaction to the right uterus. The day after the final administration, the uterine weight (right uterine body) was measured (n=6). Group E was subjected to ovariectomy and a stimulation treatment of decidualization reaction but was not subjected to a hormone treatment.
Group E: rats with ovariectomy without hormone treatment 0.5 v/v % Polysorbate 80 solution, 10 mL/kg (n=6) • Solvent group (control group): 0.5 v/v % Polysorbate 80 solution, 10 mL/kg (n=6) • Group A3: Compound A, 3 mg/kg (n=6) • Group A10: Compound A, 10 mg/kg (n=6) • Group A30: Compound A, 30 mg/kg (n=6) • Group D: Compound D (mifepristone), 3 mg/kg (n=6)

[3] = STZ diabetes model, 3 mg/kg, vs solvent group
[4] = STZ diabetes model, 10 mg/kg, vs solvent group
[5] = STZ diabetes model, Group A3 and Group A10 (3 and 10 mg/kg)
[6] = STZ diabetes model, oral 3 mg/kg
[7] = STZ diabetes model, oral 10 mg/kg

CC(=O)O[C@]1(C(C)=O)C[C@@H](O)[C@H]2[C@@H]3C=C(Cl)C4=CC(=O)OC[C@]4(C)[C@H]3CC[C@@]21C [Compound A, 17α-acetoxy-6-chloro-15β-hydroxy-2-oxa-4,6-pregnadiene-3,20-dione]
bladder capacity, cystometry (CMG) under awake condition [1, 3]: significantly reduced | residual urine volume, cystometry (CMG) under anesthesia [1, 3]: significantly decreased | residual urine volume, cystometry (CMG) under awake condition [1, 3]: significantly reduced | urination efficiency, cystometry (CMG) under awake condition [1, 3]: improved | bladder capacity, cystometry (CMG) under awake condition [1, 4]: significantly reduced | residual urine volume, cystometry (CMG) under anesthesia [1, 4]: significantly decreased | residual urine volume, cystometry (CMG) under awake condition [1, 4]: significantly reduced | bladder capacity, cystometry (CMG) under anesthesia ([1]; STZ diabetes model, 10 mg/kg, vs solvent group (P=0.0336, Williams's multiple comparison test)): reduced | urination efficiency, cystometry (CMG) under awake condition ([1]; STZ diabetes model, 10 mg/kg, vs solvent group (P=0.0359, Williams's multiple comparison test)): significantly improved | action on the body weight, the blood glucose level, or the bladder and kidney weights [1, 5]: no action or influence | urination efficiency, cystometry (CMG) under anesthesia [1, 5]: improved | bladder contraction force on urination by nomogram analysis ([1]; STZ diabetes model, Group A3 and Group A10 (3 and 10 mg/kg), in comparison with the solvent group): strong bladder contraction force | prostate and seminal vesicle weights ([1]; STZ diabetes model, Group A3 and Group A10 (3 and 10 mg/kg), vs solvent group): significantly decreased | therapeutic effect on diabetes ([1]; STZ diabetes model, blood glucose level of Group A3 and Group A10 relative to the solvent group): no therapeutic effect | Bladder weight [1, 6]: 79.3 ± 17.5 mg/100 g body weight | Blood glucose level [1, 6]: 912.8 ± 177.3 mg/dL | Kidney weight [1, 6]: 1114.9 ± 189.2 mg/100 g body weight | Prostate weight, dorsolateral prostate [1, 6]: 35.3 ± 7.8 mg/100 g body weight | Prostate weight, ventral prostate [1, 6]: 62.2 ± 11.4 mg/100 g body weight | Prostate weight, whole [1, 6]: 97.5 ± 17.7 mg/100 g body weight | Seminal vesicle weight [1, 6]: 44.3 ± 9.6 mg/100 g body weight | Dorsolateral prostate atrophy rate [1, 6]: (44.2%) | Seminal vesicle atrophy rate [1, 6]: (41.8%) | Ventral prostate atrophy rate [1, 6]: (43.0%) | Whole prostate atrophy rate [1, 6]: (43.4%) | Bladder weight [1, 7]: 72.9 ± 11.6 mg/100 g body weight | Blood glucose level [1, 7]: 846.7 ± 342.5 mg/dL | Kidney weight [1, 7]: 1171.0 ± 213.3 mg/100 g body weight | Prostate weight, dorsolateral prostate [1, 7]: 28.8 ± 6.1 mg/100 g body weight | Prostate weight, ventral prostate [1, 7]: 53.1 ± 13.5 mg/100 g body weight | Prostate weight, whole [1, 7]: 81.9 ± 19.0 mg/100 g body weight | Seminal vesicle weight [1, 7]: 37.9 ± 6.4 mg/100 g body weight | Dorsolateral prostate atrophy rate [1, 7]: (54.5%) | Seminal vesicle atrophy rate [1, 7]: (50.2%) | Ventral prostate atrophy rate [1, 7]: (51.3%) | Whole prostate atrophy rate [1, 7]: (52.5%) | Body weight ([1]; oral 3 mg/kg once a day on weekdays 4 weeks): 327.5 ± 51.3 g | Body weight ([1]; oral 10 mg/kg once a day on weekdays 4 weeks): 356.4 ± 80.9 g | inhibition at 3 mg/kg ([2]; Rattus norvegicus, 192 h, ovariectomized rats, estrone + progesterone, oral 3 mg/kg once a day 8 days, compared with the solvent group, read-out: inhibition rate (increase of uterine weight, deciduoma formation)): 15% | inhibition at 10 mg/kg ([2]; Rattus norvegicus, 192 h, ovariectomized rats, estrone + progesterone, oral 10 mg/kg once a day 8 days, compared with the solvent group, read-out: inhibition rate (increase of uterine weight, deciduoma formation)): 63% | inhibition at 30 mg/kg ([2]; Rattus norvegicus, 192 h, ovariectomized rats, estrone + progesterone, oral 30 mg/kg once a day 8 days, compared with the solvent group, read-out: inhibition rate (increase of uterine weight, deciduoma formation)): 83.3% | antiprogesterone activity ([2]; ovariectomized rats, 3, 10, 30 mg/kg oral): has an antiprogesterone activity
